Measured values as given in patent publication US11427548B2 (Arvinas Operations, Inc., priority 2015, dated 2022).
Like-named read-outs stand apart in the source and are kept apart here.

Molecular target: T1, Androgen Receptor (Homo sapiens, UniProt P10275)
T1 construct: endogenous in cells; host or cells: VCaP cells
T1 sequence (P10275 1-920): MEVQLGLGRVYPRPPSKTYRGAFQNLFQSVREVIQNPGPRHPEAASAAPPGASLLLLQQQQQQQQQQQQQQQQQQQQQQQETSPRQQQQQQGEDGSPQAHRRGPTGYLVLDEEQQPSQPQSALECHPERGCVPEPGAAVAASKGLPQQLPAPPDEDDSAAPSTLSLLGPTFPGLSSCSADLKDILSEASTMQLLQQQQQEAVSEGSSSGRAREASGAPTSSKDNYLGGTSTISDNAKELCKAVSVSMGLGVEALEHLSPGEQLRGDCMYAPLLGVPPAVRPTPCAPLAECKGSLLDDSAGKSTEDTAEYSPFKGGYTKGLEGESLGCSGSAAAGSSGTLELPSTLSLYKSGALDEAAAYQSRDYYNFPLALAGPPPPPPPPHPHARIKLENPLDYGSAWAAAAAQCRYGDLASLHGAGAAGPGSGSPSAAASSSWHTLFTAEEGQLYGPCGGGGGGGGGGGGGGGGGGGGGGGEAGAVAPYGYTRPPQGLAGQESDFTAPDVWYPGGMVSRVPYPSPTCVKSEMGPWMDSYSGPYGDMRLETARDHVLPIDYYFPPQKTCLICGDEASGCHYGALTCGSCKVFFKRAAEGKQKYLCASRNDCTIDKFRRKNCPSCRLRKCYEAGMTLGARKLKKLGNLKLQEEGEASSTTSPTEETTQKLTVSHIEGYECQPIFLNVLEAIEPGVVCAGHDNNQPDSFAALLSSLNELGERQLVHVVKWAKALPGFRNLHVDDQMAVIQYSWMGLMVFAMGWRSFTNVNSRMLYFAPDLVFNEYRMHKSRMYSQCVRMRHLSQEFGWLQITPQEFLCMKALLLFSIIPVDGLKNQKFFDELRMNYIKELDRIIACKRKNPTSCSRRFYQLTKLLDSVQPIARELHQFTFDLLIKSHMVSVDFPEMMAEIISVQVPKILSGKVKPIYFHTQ
Test: Androgen Receptor ELISA assay (PathScan AR ELISA) in VCaP cells: AR degradation, Dmax and DC50
Type: cell-based
Method in brief: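 After 24 h exposure of VCaP cells (charcoal-stripped serum, 0.1 nM R1881 agonist, 0.1% DMSO) to seven half-log compound concentrations, residual AR in lysates was measured by PathScan ELISA (TMB absorbance, 450 nm). Cells were plated at 30,000/well and grown at least 3 days beforehand.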

[1] = VCaP cells; Table 36; read-out: VCaP DC50
[2] = VCaP, VCaP cells; Table 36; read-out: VCaP Dmax (%)

SMILES	DC50 [1]	Dmax [2]	Dmax (VCaP, read-out: VCaP Dmax (%))	other results
Cc1ncsc1-c1ccc([C@H](C)NC(=O)C2C[C@@H](O)CN2C(=O)[C@@H](NC(=O)CN2C[C@@H]3C[C@H]2CN3CCCc2ccc(C(=O)N[C@H]3C(C)(C)[C@H](Oc4ccc(C#N)c(Cl)c4)C3(C)C)cc2)C(C)(C)C)cc1 (stereo partly drawn) [Example 801, (2S,4R)-1-((S)-2-(2-((1S,4S)-5-(3-(4-(((1r,3S)-3-(3-chloro-4-cyanophenoxy)-2,2,4,4-tetramethylcyclobutyl)carbamoyl)phenyl)propyl)-2,5-diazabicyclo[2.2.1]heptan-2-yl)acetamido)-3,3-dimethylbutanoyl)-4-hydroxy-N-((S)-1-(4-(4-methylthiazol-5-yl)phenyl)ethyl)pyrrolidine-2-carboxamide]	< 50 nM	51 to 70%	–	–
Cc1ncsc1-c1ccc([C@H](C)NC(=O)[C@@H]2C[C@@H](O)CN2C(=O)[C@@H](NC(=O)COCCCCCNC23CC(C(=O)N[C@H]4C(C)(C)[C@H](Oc5ccc(C#N)c(Cl)c5)C4(C)C)(C2)C3)C(C)(C)C)cc1 [Example 666, (2S,4R)-1-((S)-2-(2-((5-((3-(((1r,3r)-3-(3-chloro-4-cyanophenoxy)-2,2,4,4-tetramethylcyclobutyl)carbamoyl)bicyclo[1.1.1]pentan-1-yl)amino)pentyl)oxy)acetamido)-3,3-dimethylbutanoyl)-4-hydroxy-N-((S)-1-(4-(4-methylthiazol-5-yl)phenyl)ethyl)pyrrolidine-2-carboxamide]	> 501 nM	26 to 50%	–	–
Cc1ncsc1-c1ccc([C@H](C)NC(=O)[C@@H]2C[C@@H](O)CN2C(=O)C(NC(=O)CCCCCc2ccc(C(=O)N[C@H]3C(C)(C)[C@H](Oc4ccc(C#N)c(Cl)c4)C3(C)C)cc2)C(C)(C)C)cc1 (stereo partly drawn) [Example 748, (2S,4R)-1-((S)-2-(6-(4-(((1r,3r)-3-(3-chloro-4-cyanophenoxy)-2,2,4,4-tetramethylcyclobutyl)carbamoyl)phenyl)hexan-amido)-3,3-dimethylbutanoyl)-4-hydroxy-N-((S)-1-(4-(4-methylthiazol-5-yl)phenyl)ethyl)pyrrolidine-2-carboxamide]	< 50 nM	26 to 50%	–	–
CO[C@@H]1C[C@@H](C(=O)N(C)Cc2ccc(-c3scnc3C)cc2)N(C(=O)[C@@H](N(C)C(=O)COCCCCCN(C)c2ccc(C(=O)N[C@H]3C(C)(C)[C@H](Oc4ccc(C#N)c(C(F)(F)F)c4)C3(C)C)nc2)C(C)(C)C)C1 [Example 718, N-((1r,3r)-3-(4-cyano-3-(trifluoromethyl)phenoxy)-2,2,4,4-tetramethylcyclobutyl)-5-((5-(2-(((S)-1-((2S,4R)-4-methoxy-2-(methyl(4-(4-methylthiazol-5-yl)benzyl)carbamoyl)pyrrolidin-1-yl)-3,3-dimethyl-1-oxobutan-2-yl)(methyl)amino)-2-oxoethoxy)pentyl)(meth-yl)amino)picolinamide]	> 501 nM	< 25%	–	–
Cc1ncsc1-c1ccc(CNC(=O)[C@@H]2C[C@@H](O)CN2C(=O)[C@@H](NC(=O)COCCCCNc2ccc(-c3ccc(N4C(=S)N(c5ccc(C#N)c(C(F)(F)F)c5)C(=O)C4(C)C)cc3)cc2)C(C)(C)C)cc1 [Example 103, (2S,4R)-1-[(2S)-2-[2-(4-{[4-(4-{3-[4-cyano-3-(trifluoromethyl)phenyl]-5,5-dimethyl-4-oxo-2-sulfanylideneimidazolidin-1-yl}phenyl)phen-yl]amino}butoxy)acetamido]-3,3-dimethylbutanoyl]-4-hydroxy-N-{[4-(4-methyl-1,3-thiazol-5-yl)phenyl]methyl}pyrrolidine-2-carboxamide]	–	–	> 71%	DC50 (read-out: VCaP DC50; concentration that caused 50% Androgen Receptor degradation, VCaP cells (Table 32)): < 50 nM
Cc1ncsc1-c1ccc([C@H](C)NC(=O)[C@@H]2C[C@@H](O)CN2C(=O)[C@@H](NC(=O)COCCN2C[C@H]3C[C@@H]2CN3c2ccc(C(=O)N[C@H]3C(C)(C)[C@H](Oc4ccc(C#N)c(Cl)c4)C3(C)C)cn2)C(C)(C)C)cc1 [Example 636, N-((1r,3R)-3-(3-chloro-4-cyanophenoxy)-2,2,4,4-tetramethylcyclobutyl)-6-((1R,4R)-5-(2-(2-(((S)-1-((2S,4R)-4-hydroxy-2-(((S)-1-(4-(4-methylthiazol-5-yl)phenyl)ethyl)carbam-oyl)pyrrolidin-1-yl)-3,3-dimethyl-1-oxobutan-2-yl)amino)-2-oxoethoxy)ethyl)-2,5-diazabicyclo[2.2.1]hept-an-2-yl)nicotinamide]	–	–	> 71%	DC50 (read-out: VCaP DC50; VCaP cells; Table 36): < 50 nM
Cc1ncsc1-c1ccc([C@H](C)NC(=O)[C@@H]2C[C@@H](O)CN2C(=O)[C@@H](NC(=O)COCCCCNc2ccc(C(=O)N[C@H]3C(C)(C)[C@H](Oc4ccc(C#N)c(Cl)c4)C3(C)C)cc2)C(C)(C)C)cc1 [Example 177, (2S,4R)-1-[(2S)-3,3-dimethyl-2-(2-{4-[(4-{[trans-3-(3-chloro-4-cyanophenoxy)-2,2,4,4-tetramethylcyclobutyl]carbamoyl}phenyl)amino]butoxy}acetamido)butanoyl]-4-hydroxy-N-[(1S)-1-[4-(4-methyl-1,3-thiazol-5-yl)phenyl]ethyl]pyrrolidine-2-carboxamide]	–	–	–	Dmax (VCaP, highest percentage of Androgen Receptor degradation observed, VCaP cells (Table 32); read-out: VCaP Dmax (%)): > 71%; DC50 (concentration that caused 50% Androgen Receptor degradation, VCaP cells (Table 32); read-out: VCaP DC50): < 50 nM
CC(C)(C)[C@H](NC(=O)COCCCOCCCCOc1ccc(N2C(=S)N(c3ccc(C#N)c(Cl)c3)C(=O)C2(C)C)cc1F)C(=O)N1C[C@H](O)C[C@H]1C(=O)NCc1ccc(-c2cncs2)cc1 [Example 46, (2S,4R)-1-[(2S)-2-{2-[3-(4-{4-[3-(3-chloro-4-cyanophenyl)-5,5-dimethyl-4-oxo-2-sulfanylideneimidazolidin-1-yl]-2-fluorophenoxy}butoxy)propoxy]acetamido}-3,3-dimethylbutanoyl]-4-hydroxy-N-{[4-(1,3-thiazol-5-yl)phenyl]methyl}pyrrolidine-2-carboxamide]	–	–	> 71%	DC50 (read-out: VCaP DC50; concentration that caused 50% Androgen Receptor degradation, VCaP cells): < 50 nM
Cc1ncsc1-c1ccc([C@H](C)NC(=O)[C@@H]2C[C@@H](O)CN2C(=O)[C@@H](NC(=O)CN2CCN(CCC3CCN(c4ccc(C(=O)N[C@H]5C(C)(C)[C@H](Oc6ccc(C#N)c(Cl)c6)C5(C)C)cn4)CC3)CC2)C(C)(C)C)cc1 [Example 833, N-((1r,3r)-3-(3-chloro-4-cyanophenoxy)-2,2,4,4-tetramethylcyclobutyl)-6-(4-(2-(4-(2-(((S)-1-((2S,4R)-4-hydroxy-2-(((S)-1-(4-(4-methylthiazol-5-yl)phenyl)ethyl)carbamoyl)pyrrolidin-1-yl)-3,3-dimethyl-1-oxobutan-2-yl)amino)-2-oxoethyl)piperazin-1-yl)ethyl)piperidin-1-yl)nicotinamide]	< 50 nM	> 71%	–	–
Cc1ncsc1-c1ccc([C@H](C)NC(=O)[C@@H]2C[C@@H](O)CN2C(=O)[C@@H](NC(=O)CN2CCN(CCC3(c4ccc(C(=O)N[C@H]5C(C)(C)[C@H](Oc6ccc(C#N)c(Cl)c6)C5(C)C)cc4)COC3)CC2)C(C)(C)C)cc1 [Example 744, (2S,4R)-1-((S)-2-(2-(4-(2-(3-(4-(((1r,3r)-3-(3-chloro-4-cyanophenoxy)-2,2,4,4-tetramethylcyclobutyl)carbamoyl)phenyl)oxetan-3-yl)ethyl)piperazin-1-yl)acetamido)-3,3-dimethylbutanoyl)-4-hydroxy-N-((S)-1-(4-(4-methylthiazol-5-yl)phenyl)ethyl)pyrrolidine-2-carboxamide]	> 501 nM	–	< 25%	–
Cc1ncsc1-c1ccc([C@H](C)NC(=O)[C@@H]2C[C@@H](O)CN2C(=O)[C@@H](NC(=O)COCCCCOc2ccc(-c3ccc(N4C(=S)N(c5cnc(C#N)c(C(F)(F)F)c5)C(=O)C4(C)C)c(F)c3)cc2)C(C)(C)C)cc1 [Example 196, (2S,4R)-1-[(2S)-2-(2-{4-[4-(4-{3-[6-cyano-5-(trifluoromethyl)pyridin-3-yl]-5,5-dimethyl-4-oxo-2-sulfanylideneimidazolidin-1-yl}-3-fluorophenyl)phenoxy]butoxy}acetamido)-3,3-dimethylbutanoyl]-4-hydroxy-N-[(1S)-1-[4-(4-methyl-1,3-thiazol-5-yl)phenyl]ethyl]pyrrolidine-2-carboxamide]	–	–	–	DC50 (VCaP cells; concentration that caused 50% Androgen Receptor degradation; read-out: VCaP DC50): < 50 nM; Dmax (VCaP, VCaP cells; highest percentage of Androgen Receptor degradation; read-out: VCaP Dmax (%)): > 71%
